Results on twelve compounds are retold here after patent US20260022142A1, “MACROCYCLIC IMMUNOMODULATORS” (Bristol-Myers Squibb Company, priority 2022, published 2026).

Numbered stars: 1 amine (or outer) side, 2 acyl side, 3 side chain; on linkers, the order of the positions; unused ones are H or OH. Bridge positions count the residues as written; N and C are the ends. Square brackets hold non-standard residues; d marks the D form. Peptide text beside a SMILES is read from it. * marks the point of attachment. Phe(4-COOH) = N[C@@H](Cc1ccc(C(=O)O)cc1)C(=O)O; Bip = N[C@@H](Cc1ccc(-c2ccccc2)cc1)C(=O)O; Phe(3-Me) = Cc1cccc(C[C@H](N)C(=O)O)c1; X5 = CC(C)(CCN)[C@H](N[*:1])C(=O)[*:2]; Abu(3S-NH2) = C[C@H](N)[C@H](N)C(=O)O; NH(CH2)12COOH = O=C(O)CCCCCCCCCCCCN*; Val(3-OH) = CC(C)(O)[C@H](N)C(=O)O; 4Pal = N[C@@H](Cc1ccncc1)C(=O)O; 2Thi = N[C@@H](Cc1cccs1)C(=O)O; Cha = N[C@@H](CC1CCCCC1)C(=O)O; Cba = N[C@@H](CC1CCC1)C(=O)O; Carboxymethyl = O=C(O)C*; Orn = NCCC[C@H](N)C(=O)O; Aun = NCCCCCCCCCCC(=O)O; Dab = NCC[C@H](N)C(=O)O; Nva = CCC[C@H](N)C(=O)O; Dap = NC[C@H](N)C(=O)O; Ac3c = NC1(C(=O)O)CC1

T1 sequence (Q15116 25-288): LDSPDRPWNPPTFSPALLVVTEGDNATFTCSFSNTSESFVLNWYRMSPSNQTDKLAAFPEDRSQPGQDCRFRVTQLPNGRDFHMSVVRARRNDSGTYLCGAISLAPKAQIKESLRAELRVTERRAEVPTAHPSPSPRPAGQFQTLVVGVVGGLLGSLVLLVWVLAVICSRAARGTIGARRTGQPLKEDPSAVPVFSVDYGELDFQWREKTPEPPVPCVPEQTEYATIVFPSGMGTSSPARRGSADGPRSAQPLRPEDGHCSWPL

The experiment has as its target T1, PD-1/PD-L1 interaction (PE-labeled human PD-L1-Ig binding to Jurkat cell line over-expressing human PD-1) (Homo sapiens, UniProt Q15116).
T1 construct: expressed in transfected cells; host or cells: Jurkat
As to the kind of experiment: Jurkat-PD-1 Cell Binding High-Content Screening Assay (CBA). The format is cell-based. Conditions: Jurkat cell line over-expressing human PD-1; PE-labeled PD-L1-Ig 20 nM final; read-out: Jurkat hPD1-PDL1 IC50. The essentials:
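Human PD-L1-Ig carrying a covalent PE label on its Ig tag serves as the probe, applied at 20 nM final to compound-treated (2 h, 37° C) Jurkat-hPD-1 cells in medium with 10% fetal calf serum. After one hour, fixation and nuclear staining precede high-content image analysis.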
As for `Cc1cccc(C[C@@H]2NC(=O)[C@H](CC(=O)O)NC(=O)[C@H](Cc3ccc(OCC(=O)O)cc3)NC(=O)[C@H](CCCNC(=N)N)NC(=O)CSC[C@@H](C(=O)N[C@@H](CCN)C(=O)NCCCCCCCCCCC(=O)O)NC(=O)[C@H](CO)NC(=O)[C@H](C(C)(C)O)NC(=O)[C@H](CC3CCCCC3)NC(=O)[C@H](CCN)NC(=O)[C@@H](CC(C)C)NC(=O)[C@H](CCCN)NC(=O)[C@H](Cc3ccc(OCC(=O)O)cc3)NC(=O)[C@H](Cc3ccc(-c4ccccc4)cc3)NC(=O)[C@H](Cc3ccc(OCC(=O)O)cc3)NC2=O)c1` [Compound 2171] ({CH2CO}-RY(Carboxymethyl)D[Phe(3-Me)]Y(Carboxymethyl)[Bip]Y(Carboxymethyl)[Orn][dL][Dab][Cha][Val(3-OH)]SC[Dab][Aun]-OH; thioether N-14), the concentration for half-maximal inhibition (IC50) (commonly the point on the concentration scale where inhibition reaches its midpoint) was 4.6 nM.
As for `Cc1cccc(C[C@@H]2NC(=O)[C@H](CC(=O)O)NC(=O)[C@H](Cc3ccc(OCC(=O)O)cc3)NC(=O)[C@H](CN)NC(=O)CSC[C@@H](C(=O)N[C@H](C(=O)NCCCCCCCCCCC(=O)O)[C@H](C)N)NC(=O)[C@H](CO)NC(=O)[C@H](C(C)C)NC(=O)[C@H](CC3CCCCC3)NC(=O)[C@H](CCN)NC(=O)[C@@H](CC(C)C)NC(=O)[C@H](CCCN)NC(=O)[C@H](Cc3ccc(OCC(=O)O)cc3)NC(=O)[C@H](Cc3ccc(-c4ccccc4)cc3)NC(=O)[C@H](Cc3ccc(OCC(=O)O)cc3)NC2=O)c1` [Compound 2172] ({CH2CO}-[Dap]Y(Carboxymethyl)D[Phe(3-Me)]Y(Carboxymethyl)[Bip]Y(Carboxymethyl)[Orn][dL][Dab][Cha]VSC[Abu(3S-NH2)][Aun]-OH; thioether N-14), the half-inhibitory concentration (IC50) was 30.6 nM.
Under `Cc1cccc(C[C@@H]2NC(=O)[C@H](CC(=O)O)NC(=O)[C@H](Cc3ccc(OCC(=O)O)cc3)NC(=O)[C@H](CN)NC(=O)CSC[C@@H](C(=O)N[C@@H](CCN)C(=O)NCCCCCCCCCCC(=O)O)NC(=O)[C@H]([C@H](C)N)NC(=O)[C@H](C(C)C)NC(=O)[C@H](CC3CCCCC3)NC(=O)[C@H](CCN)NC(=O)[C@@H](CC(C)C)NC(=O)[C@H](CCCN)NC(=O)[C@H](Cc3ccc(OCC(=O)O)cc3)NC(=O)[C@H](Cc3ccc(-c4ccccc4)cc3)NC(=O)[C@H](Cc3ccc(OCC(=O)O)cc3)NC2=O)c1` [Compound 2173] ({CH2CO}-[Dap]Y(Carboxymethyl)D[Phe(3-Me)]Y(Carboxymethyl)[Bip]Y(Carboxymethyl)[Orn][dL][Dab][Cha]V[Abu(3S-NH2)]C[Dab][Aun]-OH; thioether N-14) stands 55 nM; under `Cc1cccc(C[C@@H]2NC(=O)[C@H](CC(=O)O)NC(=O)[C@H](Cc3ccc(OCC(=O)O)cc3)NC(=O)[C@H](CN)NC(=O)CSC[C@@H](C(=O)N[C@@H](CCN)C(=O)NCCCCCCCCCCC(=O)O)NC(=O)[C@H](CO)NC(=O)[C@H]([C@H](C)N)NC(=O)[C@H](CC3CCCCC3)NC(=O)[C@H](CCN)NC(=O)[C@@H](CC(C)C)NC(=O)[C@H](CCCN)NC(=O)[C@H](Cc3ccc(OCC(=O)O)cc3)NC(=O)[C@H](Cc3ccc(-c4ccccc4)cc3)NC(=O)[C@H](Cc3ccc(OCC(=O)O)cc3)NC2=O)c1` [Compound 2174] ({CH2CO}-[Dap]Y(Carboxymethyl)D[Phe(3-Me)]Y(Carboxymethyl)[Bip]Y(Carboxymethyl)[Orn][dL][Dab][Cha][Abu(3S-NH2)]SC[Dab][Aun]-OH; thioether N-14), 11.3 nM.
As for `Cc1cccc(C[C@@H]2NC(=O)[C@H](CC(=O)O)NC(=O)[C@H](Cc3ccc(OCC(=O)O)cc3)NC(=O)[C@H](CN)NC(=O)CSC[C@@H](C(=O)N[C@@H](CCN)C(=O)NCCCCCCCCCCC(=O)O)NC(=O)[C@H](CO)NC(=O)[C@H](C(C)(C)O)NC(=O)[C@H](CC3CCC3)NC(=O)[C@H](CCN)NC(=O)[C@@H](CC(C)C)NC(=O)[C@H](CCCN)NC(=O)[C@H](Cc3ccc(OCC(=O)O)cc3)NC(=O)[C@H](Cc3ccc(-c4ccccc4)cc3)NC(=O)[C@H](Cc3ccc(OCC(=O)O)cc3)NC2=O)c1` [Compound 2175] ({CH2CO}-[Dap]Y(Carboxymethyl)D[Phe(3-Me)]Y(Carboxymethyl)[Bip]Y(Carboxymethyl)[Orn][dL][Dab][Cba][Val(3-OH)]SC[Dab][Aun]-OH; thioether N-14), the 50% inhibitory concentration (IC50) amounted to 10.8 nM.
Under `Cc1cccc(C[C@@H]2NC(=O)[C@H](CC(=O)O)NC(=O)[C@H](Cc3ccc(OCC(=O)O)cc3)NC(=O)[C@H](C(C)(C)CCN)NC(=O)CSC[C@@H](C(=O)N[C@@H](CCN)C(=O)NCCCCCCCCCCCCC(=O)O)NC(=O)[C@H](CO)NC(=O)[C@H](C(C)(C)O)NC(=O)[C@H](CC3CCCCC3)NC(=O)[C@H](CCN)NC(=O)[C@@H](CC(C)C)NC(=O)[C@H](CCCN)NC(=O)[C@H](Cc3ccc(OCC(=O)O)cc3)NC(=O)[C@H](Cc3ccc(-c4ccccc4)cc3)NC(=O)[C@H](Cc3ccc(OCC(=O)O)cc3)NC2=O)c1` [Compound 2176] ({CH2CO}-[X5]Y(Carboxymethyl)D[Phe(3-Me)]Y(Carboxymethyl)[Bip]Y(Carboxymethyl)[Orn][dL][Dab][Cha][Val(3-OH)]SC[Dab]-{NH(CH2)12COOH}; thioether N-14) stands 105 nM.
Under `Cc1cccc(C[C@@H]2NC(=O)[C@H](CC(=O)O)NC(=O)[C@H](Cc3ccc(C(=O)O)cc3)NC(=O)[C@H](Cc3ccncc3)NC(=O)CSC[C@@H](C(=O)N[C@@H](CCN)C(=O)NCCCCCCCCCCC(=O)O)NC(=O)[C@H](CO)NC(=O)[C@H](C(C)(C)O)NC(=O)[C@H](CC3CCCCC3)NC(=O)[C@H](CCN)NC(=O)[C@@H](CC(C)C)NC(=O)[C@H](CCCN)NC(=O)[C@H](Cc3ccc(OCC(=O)O)cc3)NC(=O)[C@H](Cc3ccc(-c4ccccc4)cc3)NC(=O)[C@H](Cc3ccc(OCC(=O)O)cc3)NC2=O)c1` [Compound 2177] ({CH2CO}-[4Pal][Phe(4-COOH)]D[Phe(3-Me)]Y(Carboxymethyl)[Bip]Y(Carboxymethyl)[Orn][dL][Dab][Cha][Val(3-OH)]SC[Dab][Aun]-OH; thioether N-14) stands 144 nM.
The same measure for `CCC[C@@H]1NC(=O)CSC[C@@H](C(=O)N[C@@H](CCN)C(=O)NCCCCCCCCCCC(=O)O)NC(=O)[C@H](CO)NC(=O)[C@H](C(C)(C)O)NC(=O)[C@H](CC2CCCCC2)NC(=O)[C@H](CCN)NC(=O)[C@@H](CC(C)C)NC(=O)[C@H](CCCN)NC(=O)[C@H](Cc2ccc(OCC(=O)O)cc2)NC(=O)[C@H](Cc2ccc(-c3ccccc3)cc2)NC(=O)[C@H](Cc2ccc(OCC(=O)O)cc2)NC(=O)[C@H](Cc2cccc(C)c2)NC(=O)[C@H](CC(=O)O)NC(=O)[C@H](Cc2ccc(C(=O)O)cc2)NC1=O` [Compound 2178] ({CH2CO}-[Nva][Phe(4-COOH)]D[Phe(3-Me)]Y(Carboxymethyl)[Bip]Y(Carboxymethyl)[Orn][dL][Dab][Cha][Val(3-OH)]SC[Dab][Aun]-OH; thioether N-14): 6.4 nM.
In the case of `Cc1cccc(C[C@@H]2NC(=O)[C@H](CC(=O)O)NC(=O)[C@H](Cc3ccc(C(=O)O)cc3)NC(=O)[C@H](Cc3cccs3)NC(=O)CSC[C@@H](C(=O)N[C@@H](CCN)C(=O)NCCCCCCCCCCC(=O)O)NC(=O)[C@H](CO)NC(=O)[C@H](C(C)(C)O)NC(=O)[C@H](CC3CCCCC3)NC(=O)[C@H](CCN)NC(=O)[C@@H](CC(C)C)NC(=O)[C@H](CCCN)NC(=O)[C@H](Cc3ccc(OCC(=O)O)cc3)NC(=O)[C@H](Cc3ccc(-c4ccccc4)cc3)NC(=O)[C@H](Cc3ccc(OCC(=O)O)cc3)NC2=O)c1` [Compound 2179] ({CH2CO}-[2Thi][Phe(4-COOH)]D[Phe(3-Me)]Y(Carboxymethyl)[Bip]Y(Carboxymethyl)[Orn][dL][Dab][Cha][Val(3-OH)]SC[Dab][Aun]-OH; thioether N-14), the IC50 is 22 nM.
Consider `Cc1cccc(C[C@@H]2NC(=O)[C@H](CC(=O)O)NC(=O)[C@H](Cc3ccc(OCC(=O)O)cc3)NC(=O)C3(CC3)NC(=O)CSC[C@@H](C(=O)N[C@@H](CCN)C(=O)NCCCCCCCCCCC(=O)O)NC(=O)[C@H](CO)NC(=O)[C@H](C(C)(C)O)NC(=O)[C@H](CC3CCCCC3)NC(=O)[C@H](CCN)NC(=O)[C@@H](CC(C)C)NC(=O)[C@H](CCCN)NC(=O)[C@H](Cc3ccc(OCC(=O)O)cc3)NC(=O)[C@H](Cc3ccc(-c4ccccc4)cc3)NC(=O)[C@H](Cc3ccc(OCC(=O)O)cc3)NC2=O)c1` [Compound 2180] ({CH2CO}-[Ac3c]Y(Carboxymethyl)D[Phe(3-Me)]Y(Carboxymethyl)[Bip]Y(Carboxymethyl)[Orn][dL][Dab][Cha][Val(3-OH)]SC[Dab][Aun]-OH; thioether N-14), for which the IC50 was determined as 119 nM.
In the case of `COc1ccc(C[C@@H]2NC(=O)CSC[C@@H](C(=O)N[C@@H](CCN)C(=O)NCCCCCCCCCCC(=O)O)NC(=O)[C@H](CO)NC(=O)[C@H](C(C)(C)O)NC(=O)[C@H](CC3CCCCC3)NC(=O)[C@H](CCN)NC(=O)[C@@H](CC(C)C)NC(=O)[C@H](CCCN)NC(=O)[C@H](Cc3ccc(OCC(=O)O)cc3)NC(=O)[C@H](Cc3ccc(-c4ccccc4)cc3)NC(=O)[C@H](Cc3ccc(OCC(=O)O)cc3)NC(=O)[C@H](Cc3cccc(C)c3)NC(=O)[C@H](CC(=O)O)NC(=O)[C@H](Cc3ccc(OCC(=O)O)cc3)NC2=O)cc1` [Compound 2181] ({CH2CO}-Y(Me)Y(Carboxymethyl)D[Phe(3-Me)]Y(Carboxymethyl)[Bip]Y(Carboxymethyl)[Orn][dL][Dab][Cha][Val(3-OH)]SC[Dab][Aun]-OH; thioether N-14), the half-inhibitory concentration (IC50) was determined as 17.7 nM.
Under `Cc1cccc(C[C@@H]2NC(=O)[C@H](CC(=O)O)NC(=O)[C@H](Cc3ccc(OCC(=O)O)cc3)NC(=O)[C@H](Cc3cccs3)NC(=O)CSC[C@@H](C(=O)N[C@@H](CCN)C(=O)NCCCCCCCCCCC(=O)O)NC(=O)[C@H](CO)NC(=O)[C@H](C(C)(C)O)NC(=O)[C@H](CC3CCCCC3)NC(=O)[C@H](CCN)NC(=O)[C@@H](CC(C)C)NC(=O)[C@H](CCCN)NC(=O)[C@H](Cc3ccc(OCC(=O)O)cc3)NC(=O)[C@H](Cc3ccc(-c4ccccc4)cc3)NC(=O)[C@H](Cc3ccc(OCC(=O)O)cc3)NC2=O)c1` [Compound 2182] ({CH2CO}-[2Thi]Y(Carboxymethyl)D[Phe(3-Me)]Y(Carboxymethyl)[Bip]Y(Carboxymethyl)[Orn][dL][Dab][Cha][Val(3-OH)]SC[Dab][Aun]-OH; thioether N-14) stands 15.6 nM.
